The structures appear in SMILES notation. pKd: −log10 of the molar value.

Common to all, as to type: binding
Experiment [1] concerns the target T1, H3K4 peptide (unmethylated) (Homo sapiens, UniProt P68431).
T1 construct: H3 1-7=H2N-ARTKQTAY-COOH; made in house; host or cells: chemical solid-phase peptide synthesis
Put plainly: fluorescence indicator displacement assay, solution-phase affinity for H3K4 peptide. The settings on record: for pKd: 10 mM phosphate buffer at pH 7.4, average of triplicate determinations, indicator displacement assay, read-out: Solution-phase equilibrium dissociation constant (Kd), H3K4; for binding to unmethylated controls (in words): solution phase, relative to methylated peptides. The method, then: (§1) In this example, the activity of various compound embodiments described herein were evaluated. A calixarene parent compound and compounds 502 and 404 were evaluated. Compound 502 was used has an upper-rim aryl group attached via sulfonamide linkage, and also includes a distal carboxy group for conjugation to solid-phase supports. The solution-phase affinities of a calixarene parent compound, and compounds 502 and 404 were determined for various methyllysine and methylarginine containing peptides by fluorescence indicator displacement assay (Table 1).
(§2) All values were determined in 10 mM phosphate buffer at pH 7.4 and are averages of triplicate determinations by an indicator displacement assay.

The next experiment concerns the target T2, H3K4me peptide (Homo sapiens, UniProt P68431).
T2 construct: H3 1-7=H2N-ARTKQTAY-COOH; made in house; host or cells: chemical solid-phase peptide synthesis
Put plainly: fluorescence indicator displacement assay, solution-phase affinity for H3K4me peptide. The settings on record: 10 mM phosphate buffer at pH 7.4, average of triplicate determinations, read-out: Solution-phase equilibrium dissociation constant (Kd), H3K4me. The method, then:
as §1, §2

Another experiment has as its target T3, H3K4me2 peptide (Homo sapiens, UniProt P68431).
T3 construct: H3 1-7=H2N-ARTKQTAY-COOH; made in house; host or cells: chemical solid-phase peptide synthesis
Put plainly: fluorescence indicator displacement assay, solution-phase affinity for H3K4me2 peptide. The settings on record: for pKd: 10 mM phosphate buffer at pH 7.4, average of triplicate determinations, read-out: Solution-phase equilibrium dissociation constant (Kd), H3K4me2; for affinity for Kme2-containing peptides (in words): solution phase. How it is done:
as §1, §2

Another experiment deals with T4, H3K4me3 peptide.
T4 construct: other: solution phase, indicator displacement assay; fused on or other part: C-terminal Tyr added to read concentration by A280; trimethyl-lysine (a PTM)
Put plainly: fluorescence indicator displacement assay, solution-phase affinity for H3K4me3 peptide. How it is done: as §1, §2

The target in another experiment is T5, H3K4ac peptide (Homo sapiens, UniProt P68431).
T5 construct: H3 1-7=H2N-ARTKQTAY-COOH; made in house; host or cells: chemical solid-phase peptide synthesis
Put plainly: fluorescence indicator displacement assay, solution-phase affinity for H3K4ac peptide. The settings on record: for pKd: 10 mM phosphate buffer at pH 7.4, average of triplicate determinations, indicator displacement assay, read-out: Solution-phase equilibrium dissociation constant (Kd), H3K4ac; for binding to Kac containing peptides (in words): solution phase, relative to methylated peptides. How it is done: as §1, §2

A further experiment has as its target T6, H3R2me2s peptide (Homo sapiens, UniProt P68431).
T6 construct: H3 1-7=H2N-ARTKQTAY-COOH; made in house; host or cells: chemical solid-phase peptide synthesis
Put plainly: fluorescence indicator displacement assay, solution-phase affinity for H3R2me2s peptide. The settings on record: 10 mM phosphate buffer at pH 7.4, average of triplicate determinations, read-out: Solution-phase equilibrium dissociation constant (Kd), H3R2me2s. How it is done:
as §1, §2

For a further experiment, the target named is T7, H3R2me2a peptide (Homo sapiens, UniProt P68431).
T7 construct: H3 1-7=H2N-ARTKQTAY-COOH; made in house; host or cells: chemical solid-phase peptide synthesis
Put plainly: fluorescence indicator displacement assay, solution-phase affinity for H3R2me2a peptide. The settings on record: for pKd: 10 mM phosphate buffer at pH 7.4, average of triplicate determinations, read-out: Solution-phase equilibrium dissociation constant (Kd), H3R2me2a. How it is done:
as §1, §2

The target in another experiment is T8, H3K9me3 peptide (Homo sapiens, UniProt P68431).
T8 construct: H3 1-12=H2N-ARTKQTARKSTGY-COOH; made in house; host or cells: chemical solid-phase peptide synthesis
Put plainly: fluorescence indicator displacement assay, solution-phase affinity for H3K9me3 peptide. The settings on record: 10 mM phosphate buffer at pH 7.4, average of triplicate determinations, read-out: Solution-phase equilibrium dissociation constant (Kd), H3K9me3. How it is done:
as §1, §2

`O=C(O)c1ccc(S(=O)(=O)Nc2cc3c(O)c(c2)Cc2cc(S(=O)(=O)O)cc(c2O)Cc2cc(S(=O)(=O)O)cc(c2O)Cc2cc(S(=O)(=O)O)cc(c2O)C3)cc1` [Compound 502, 5-(4-carboxyphenyl)sulfonamido-25, 26, 27, 28-tetrahydroxy-11-17-23-trisulfonatocalix[4]arene]: the pKd is 5.42 in experiment [1]; 5.89 at H3K4me peptide; 6.40 at H3K4me2 peptide; 5.12 on H3K4ac peptide; 5.59 at H3R2me2s peptide; 6.22 at H3R2me2a peptide. Also, the negative-log Kd (pKd) on H3K9me3 peptide was 6.30. For the same compound, in experiment [1], the “binding to unmethylated controls (in words)” value is given as “weaker binding”. Further, the “affinity for Kme2-containing peptides (in words)” value on H3K4me2 peptide was “sub-micromolar”. Moreover, the “affinity for Kme3-containing peptides (in words)” value on H3K4me3 peptide is “sub-micromolar”. Moreover, the “binding to Kac containing peptides (in words)” value on H3K4ac peptide is on record as “weaker binding”. Also, the “affinity for aDMA-containing peptides (in words)” value on H3R2me2a peptide (solution phase) is recorded as “sub-micromolar”.
In the case of `O=C(O)Cc1ccc(-c2cc3c(O)c(c2)Cc2cc(S(=O)(=O)O)cc(c2O)Cc2cc(S(=O)(=O)O)cc(c2O)Cc2cc(S(=O)(=O)O)cc(c2O)C3)cc1` [Compound 404, 5-(4-carboxymethylphenyl)-25, 26, 27, 28-tetrahydroxy-11-17-23-trisulfonatocalix[4]arene], the pKd in experiment [1] is 4.07; at H3K4me peptide, 5.64; on H3K4me2 peptide, 7.00; on H3K4ac peptide, less than 3.00; at H3R2me2s peptide it was 5.18; at H3R2me2a peptide, 6.00. Further, the negative logarithm of the Kd (pKd) at H3K9me3 peptide is 6.00. The “binding to unmethylated controls (in words)” value in experiment [1] was “weaker binding”. Also, on H3K4me2 peptide, the “affinity for Kme2-containing peptides (in words)” value was “sub-micromolar”. For the same compound, the “affinity for Kme3-containing peptides (in words)” value at H3K4me3 peptide is “sub-micromolar”. The “binding to Kac containing peptides (in words)” value on H3K4ac peptide was “weaker binding”.

For the origin of these results see US10338037B2, “Compounds and conjugates for identifying and separating post-translationally modified analytes” (UVic Industry Partnerships Inc., priority 2015, dated 2019).
